Measured values from ChEMBL document CHEMBL1201862, “PubChem BioAssay data set” (2004).
Where a name gives a salt, the structure may show the parent alone. The source made the active and inactive calls.

Legend:
[1] = viability of uninfected HEp-2 cells – cell-based, HTS, cytotoxicity control for RSV inhibitor project, dose response (AID 2410); type: functional; settings: human respiratory syncytial virus
NADPH oxidase 1 = NADPH oxidase 1 (Homo sapiens, UniProt Q9Y5S8); experiment: Late-stage luminescence-based cell-based dose response assay to identify inhibitors of NADPH oxidase 1 (NOX1): Synthesized analogs.; type: functional
INS1 = experiment: INS-1E survival protection against cytokine death – cell-based, luminescence, retest, dose response (AID 449756); type: functional; settings: Rattus norvegicus;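 further: cell death triggered by IL-1 beta plus TNF-alpha plus IFN-gamma mixture; protective hits raise ATP signal compared with cytokine alone wells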
[2] = viability loss in Vero cells – cytotoxicity control for Vif-APOBEC3G degradation inhibitor project, dose response (AID 1117358); type: functional; settings: Vero
Protein skinhead-1 = molecular target: T1, Protein skinhead-1 (Caenorhabditis elegans, UniProt P34707); type: functional
T1 sequence (P34707 whole entry): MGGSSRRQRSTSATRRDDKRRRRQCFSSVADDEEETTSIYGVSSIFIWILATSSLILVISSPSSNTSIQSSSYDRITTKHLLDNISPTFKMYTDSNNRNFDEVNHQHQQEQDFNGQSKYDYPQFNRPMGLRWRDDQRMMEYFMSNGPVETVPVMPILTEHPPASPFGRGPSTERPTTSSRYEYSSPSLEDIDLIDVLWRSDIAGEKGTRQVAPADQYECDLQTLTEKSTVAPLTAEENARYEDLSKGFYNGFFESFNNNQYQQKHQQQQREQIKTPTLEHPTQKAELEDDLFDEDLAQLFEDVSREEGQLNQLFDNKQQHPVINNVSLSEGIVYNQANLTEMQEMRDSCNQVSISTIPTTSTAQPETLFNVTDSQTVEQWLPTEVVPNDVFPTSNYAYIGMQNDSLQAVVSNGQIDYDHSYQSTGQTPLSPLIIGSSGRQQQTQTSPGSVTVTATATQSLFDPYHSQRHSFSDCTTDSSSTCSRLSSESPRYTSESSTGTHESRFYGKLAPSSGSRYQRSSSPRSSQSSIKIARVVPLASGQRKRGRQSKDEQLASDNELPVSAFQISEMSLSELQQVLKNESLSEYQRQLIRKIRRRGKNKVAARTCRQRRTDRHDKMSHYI

[3] = molecular target: T2, Sentrin-specific protease 8 (Homo sapiens, UniProt Q96LD8); type: functional
T2 sequence (Q96LD8 whole entry): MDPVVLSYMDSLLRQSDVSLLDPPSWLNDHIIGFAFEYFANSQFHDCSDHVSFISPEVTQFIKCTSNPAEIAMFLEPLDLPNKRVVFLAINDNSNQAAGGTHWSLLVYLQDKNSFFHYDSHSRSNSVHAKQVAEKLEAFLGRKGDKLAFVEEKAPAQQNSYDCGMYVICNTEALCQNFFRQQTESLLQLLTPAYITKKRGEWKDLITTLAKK

[4] = molecular target: Glutathione-S-transferase (Schistosoma japonicum, UniProt Q26513); experiment: GST-antibody interaction or FRET quenching – biochemical, TR-FRET, artefact control for Vif-APOBEC3G degradation inhibitor project, dose response (AID 1117362); type: functional
[5] = molecular target: T2, Sentrin-specific protease 8; type: functional; remark: listed apart in the source
[6] = molecular target: T3, Histone-lysine N-methyltransferase NSD2 (Homo sapiens, UniProt O96028); type: biochemical
T3 sequence (O96028 whole entry): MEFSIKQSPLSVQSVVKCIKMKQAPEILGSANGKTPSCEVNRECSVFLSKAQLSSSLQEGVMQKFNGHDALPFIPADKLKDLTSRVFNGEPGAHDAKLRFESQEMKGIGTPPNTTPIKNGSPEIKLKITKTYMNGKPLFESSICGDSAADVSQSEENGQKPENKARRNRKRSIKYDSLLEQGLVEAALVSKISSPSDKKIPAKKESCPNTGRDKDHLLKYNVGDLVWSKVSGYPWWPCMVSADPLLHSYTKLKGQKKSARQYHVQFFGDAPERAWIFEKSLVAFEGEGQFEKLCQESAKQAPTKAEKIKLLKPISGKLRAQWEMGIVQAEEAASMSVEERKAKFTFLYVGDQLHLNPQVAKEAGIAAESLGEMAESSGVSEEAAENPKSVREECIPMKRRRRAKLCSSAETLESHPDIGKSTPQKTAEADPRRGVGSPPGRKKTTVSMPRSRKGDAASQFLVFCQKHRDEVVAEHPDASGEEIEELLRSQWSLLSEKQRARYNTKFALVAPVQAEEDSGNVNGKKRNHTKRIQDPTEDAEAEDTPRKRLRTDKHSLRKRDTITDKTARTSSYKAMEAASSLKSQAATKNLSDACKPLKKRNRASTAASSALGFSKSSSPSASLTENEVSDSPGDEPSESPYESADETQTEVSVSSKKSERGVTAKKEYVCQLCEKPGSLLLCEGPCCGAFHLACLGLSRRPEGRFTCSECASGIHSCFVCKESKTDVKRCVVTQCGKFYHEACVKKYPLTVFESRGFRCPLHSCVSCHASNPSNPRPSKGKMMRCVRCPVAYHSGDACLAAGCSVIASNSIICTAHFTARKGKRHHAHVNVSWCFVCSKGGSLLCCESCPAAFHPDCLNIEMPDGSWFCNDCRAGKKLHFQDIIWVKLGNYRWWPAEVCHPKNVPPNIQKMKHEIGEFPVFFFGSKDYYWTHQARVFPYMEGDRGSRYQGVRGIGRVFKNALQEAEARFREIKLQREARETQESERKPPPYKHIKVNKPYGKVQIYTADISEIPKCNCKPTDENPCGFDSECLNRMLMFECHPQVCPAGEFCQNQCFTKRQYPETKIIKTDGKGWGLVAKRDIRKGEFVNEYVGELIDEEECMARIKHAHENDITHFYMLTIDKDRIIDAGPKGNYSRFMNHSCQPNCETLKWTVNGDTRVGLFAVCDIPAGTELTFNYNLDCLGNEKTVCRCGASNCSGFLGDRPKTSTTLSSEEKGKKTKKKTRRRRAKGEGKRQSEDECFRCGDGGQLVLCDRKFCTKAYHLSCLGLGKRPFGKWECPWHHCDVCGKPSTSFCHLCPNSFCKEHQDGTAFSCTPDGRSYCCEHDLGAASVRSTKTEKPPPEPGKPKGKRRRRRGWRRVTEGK

[7] = molecular target: T4, Tyrosyl-DNA phosphodiesterase 2 (Homo sapiens, UniProt O95551); experiment: potency against TDP2 phosphodiesterase activity – biochemical, epi absorbance, IC50, dose response (AID 743297)
T4 sequence (O95551 whole entry): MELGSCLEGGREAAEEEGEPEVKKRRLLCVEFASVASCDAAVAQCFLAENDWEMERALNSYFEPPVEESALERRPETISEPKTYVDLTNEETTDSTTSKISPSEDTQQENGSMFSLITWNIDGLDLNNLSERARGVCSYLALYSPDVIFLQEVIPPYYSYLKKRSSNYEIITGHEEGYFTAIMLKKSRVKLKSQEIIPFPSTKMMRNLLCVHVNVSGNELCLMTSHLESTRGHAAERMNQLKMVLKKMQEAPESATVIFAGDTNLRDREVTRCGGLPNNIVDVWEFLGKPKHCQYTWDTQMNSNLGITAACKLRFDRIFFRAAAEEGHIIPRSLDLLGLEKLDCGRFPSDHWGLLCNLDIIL

[8] = molecular target: Sphingosine 1-phosphate receptor 2 (Homo sapiens, UniProt O95136); experiment: Dose Response Cell Based Assay for Agonists of the S1P2 Receptor. [Related pubchem assays: 729, 736, 843 ]; type: functional
Bcl-2-related protein A1 = molecular target: T5, Bcl-2-related protein A1 (Mus musculus, UniProt Q07440); type: functional;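 further: confirmatory dose–response counterscreen on Bfl-1, used to check hits from a UBC13 polyubiquitin inhibitor campaign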
T5 sequence (Q07440 whole entry): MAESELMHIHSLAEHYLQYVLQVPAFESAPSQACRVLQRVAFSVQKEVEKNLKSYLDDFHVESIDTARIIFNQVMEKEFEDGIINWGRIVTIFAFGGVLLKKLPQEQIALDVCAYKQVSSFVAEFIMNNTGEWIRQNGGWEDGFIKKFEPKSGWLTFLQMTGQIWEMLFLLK

[9] = molecular target: T6, Ubiquitin-conjugating enzyme E2 N (Homo sapiens, UniProt P61088); type: functional
T6 sequence (P61088 whole entry): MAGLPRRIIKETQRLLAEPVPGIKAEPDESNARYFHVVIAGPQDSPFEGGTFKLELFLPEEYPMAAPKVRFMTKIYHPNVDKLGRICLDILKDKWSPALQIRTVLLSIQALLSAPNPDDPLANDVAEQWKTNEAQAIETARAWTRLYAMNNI

[10] = molecular target: T6, Ubiquitin-conjugating enzyme E2 N; type: functional; remark: listed apart in the source
[11] = RKO cell viability reduction, dose response, CellTiter-Glo luminescence (AID 1117322); type: functional
[12] = cytotoxicity toward Colo320 cells – cell-based, CellTiter-Glo luminescence, IC50, dose response (AID 1117334); type: functional; settings: COLO 320
[13] = HCT116 cell viability decrease, GSK3B pretreatment – CellTiter-Glo, IC50, dose response (AID 1117339); type: functional; settings: HCT-116
[14] = SNU-C1 cell viability reduction, dose response, CellTiter-Glo luminescence (AID 1117323); type: functional, cell-based
[15] = rise of 2N DNA cells, HeLa – IC50, dose response (AID 1117349); type: functional, cell-based
[16] = CellTiter-Glo luminescence survival assay, SW480 colon tumor line, concentration-response curve, half-maximal inhibitory concentration (AID 1117338); type: functional
[17] = Reduced DLD-1 viability, concentration-response, CellTiter-Glo luminescence (AID 1117352); type: functional
[18] = rise of 4N DNA cells, HeLa – IC50, dose response (AID 1117351); type: functional, cell-based
[19] = cytotoxicity toward HCT116 cells – cell-based, CellTiter-Glo luminescence, IC50, dose response (AID 1117332); type: functional; settings: HCT-116
[20] = cytotoxicity toward HT-29 cells – cell-based, CellTiter-Glo luminescence, IC50, dose response (AID 1117330); type: functional
[21] = blockers of HIV-1 envelope-mediated cell-cell fusion – cherry-pick, dose response (AID 652057); type: functional, cell-based
[22] = T. cruzi growth inhibition in host cells, dose response, cell-based, plate reader, dry powder, set 2 (AID 652275); type: functional
[23] = HIV-1 AD8 envelope cell-cell fusion blockers – cherry-pick, dose response (AID 652062); type: functional, cell-based;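 further: luciferase signal from cell-cell fusion driven by HIV-1 clade B AD8 Env; potency is for inhibitors of fusion seen as a drop in luminescence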
[24] = Trypanosoma cruzi replication inhibitors in host cells – cell-based, plate reader, dry powder samples, dose response (AID 651845); type: functional
[25] = anti-trypanosomal activity in BESM host cells – imaging, CA-I/72 strain, bovine embryo skeletal muscle, dry powder, dose response (AID 651885); type: functional, cell-based
[26] = lung carcinoma cell viability loss – CellTiter-Glo luminescence, dry powder, set 17, dose response (AID 1117284); type: functional, cell-based; settings: A549
[27] = cell lysis of Cryptococcus neoformans, alamar blue – dry powder, set 3, mechanism study for C. neoformans antifungal project, dose response (AID 743298); type: functional, organism-based
[28] = IC50 of insulin release inhibition, rat insulinoma INS-1E line, 5 mM glucose, cell-based (AID 1117331); type: functional

Sphingosine 1-phosphate receptor 2, sequence (O95136 whole entry): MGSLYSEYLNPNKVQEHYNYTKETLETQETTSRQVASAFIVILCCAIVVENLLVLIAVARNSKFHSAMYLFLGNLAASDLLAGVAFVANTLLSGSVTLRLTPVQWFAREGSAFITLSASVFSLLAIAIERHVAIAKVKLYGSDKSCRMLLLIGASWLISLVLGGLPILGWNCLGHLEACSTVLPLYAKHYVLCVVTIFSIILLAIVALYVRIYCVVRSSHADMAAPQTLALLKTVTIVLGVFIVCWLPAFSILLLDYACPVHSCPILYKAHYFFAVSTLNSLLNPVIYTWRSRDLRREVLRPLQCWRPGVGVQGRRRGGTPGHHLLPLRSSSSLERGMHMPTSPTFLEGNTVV
NADPH oxidase 1, sequence (Q9Y5S8 whole entry): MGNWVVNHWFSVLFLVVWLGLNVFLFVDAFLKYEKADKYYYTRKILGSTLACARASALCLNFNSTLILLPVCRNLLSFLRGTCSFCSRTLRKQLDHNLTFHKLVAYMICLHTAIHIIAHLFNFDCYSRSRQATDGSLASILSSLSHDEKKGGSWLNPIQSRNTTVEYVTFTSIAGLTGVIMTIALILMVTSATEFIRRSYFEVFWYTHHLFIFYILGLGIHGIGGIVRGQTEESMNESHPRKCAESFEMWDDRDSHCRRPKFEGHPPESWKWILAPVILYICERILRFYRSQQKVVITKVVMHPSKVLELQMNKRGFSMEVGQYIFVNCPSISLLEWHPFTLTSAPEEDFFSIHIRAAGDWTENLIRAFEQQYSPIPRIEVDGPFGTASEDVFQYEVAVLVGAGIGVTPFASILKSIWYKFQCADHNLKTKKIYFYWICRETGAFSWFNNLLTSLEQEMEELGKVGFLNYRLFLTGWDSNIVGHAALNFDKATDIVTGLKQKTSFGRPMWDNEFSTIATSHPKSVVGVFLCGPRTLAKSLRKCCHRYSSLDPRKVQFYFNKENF
Glutathione-S-transferase, sequence (Q26513 whole entry): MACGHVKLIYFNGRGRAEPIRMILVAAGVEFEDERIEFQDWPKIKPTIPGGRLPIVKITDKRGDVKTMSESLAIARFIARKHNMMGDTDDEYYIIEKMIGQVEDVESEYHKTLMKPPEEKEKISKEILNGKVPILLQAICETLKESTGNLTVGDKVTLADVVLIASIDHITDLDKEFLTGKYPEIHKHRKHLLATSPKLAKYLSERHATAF

Structure (SMILES): Cc1ccc2c(c1)Sc1c(ccc3ccccc13)N2
- CC50 [1]: 47.8 µM (active)
- IC50 (NADPH oxidase 1): 1.47 µM (active)
- AC50 (INS1): > 260 µM (inactive)

Structure (SMILES): CSc1ccc(C2Nc3ccccc3-c3cc(C)nn32)cc1 (configuration not stated)
- CC50 [2]: > 40 µM (active)
- IC50 (Protein skinhead-1): > 100 µM (inactive)

Structure (SMILES): C[n+]1cccc2cccc([O-])c21
- IC50 [3]: 1.01 µM (active)
- IC50 [4]: 42.6 µM (active)
- IC50 [5]: 1.82 µM (active)
- AC50 [6]: 15.1 µM (active)
- IC50 [7]: 60 µM (inactive)

Structure (SMILES): CCC(=O)c1cc2c(C)cc(=O)oc2c(C)c1O
- EC50 [8]: > 50 µM (not active)
- IC50 (Bcl-2-related protein A1): > 20 µM (inactive)
- IC50 [9]: > 20 µM (inactive)
- IC50 [10]: 10.5 µM (active)

Structure (SMILES): NC(N)=NN=C(/C=C/c1ccc([N+](=O)[O-])o1)/C=C/c1ccc([N+](=O)[O-])o1
- IC50 [11]: 0.0128 µM (active)
- IC50 [12]: 0.003 µM (active)
- IC50 [13]: 0.0237 µM (active)
- IC50 [14]: 1.35 µM (active)
- IC50 [15]: > 10 µM (inactive)
- IC50 [16]: 0.0076 µM (active)
- IC50 [17]: > 20 µM (inactive)
- IC50 [18]: > 10 µM (inactive)
- IC50 [19]: 0.136 µM (active)
- IC50 [20]: 0.003 µM (active)

Structure (SMILES): C[C@@H]1CN([C@H](C)CO)C(=O)c2cccc(NC(=O)c3ccncc3)c2O[C@H]1CN(C)CC1CCCCC1
- AC50 [21]: 0.884 µM (active)
- AC50 [22]: 0.303 µM (active)
- AC50 [23]: 4.84 µM (active)
- AC50 [24]: 0.391 µM (active)
- IC50 [25]: 0.961 µM (active)

Structure (SMILES): COc1ccc(-c2ccc(CN(C)C[C@@H]3Oc4cc(C#C[C@@H](C)O)ccc4S(=O)(=O)N([C@@H](C)CO)C[C@@H]3C)cc2)cc1
- AC50 [26]: 29.8 µM (active)

Structure (SMILES): Fc1ccc(OCCn2c(=S)[nH]c3ccccc32)cc1
- AC50 [27]: 55.4 µM (active)

Structure (SMILES): CN(C)CCN1C(=O)c2ccccc2N(C)c2ccccc21 [DIBENZEPIN HYDROCHLORIDE]
- IC50 [28]: > 33.3 µM (inactive)
